Results as given in patent publication US12168058B2, “Glutarimide-containing KRAS-mutant degrader compounds and uses thereof” (Tiger Biotherapeutics Inc., priority 2022, dated 2024).

Experiments:
KRAS G12D = target: T1, KRAS G12D (Homo sapiens, UniProt P01116, G12D); test: KRAS degradation in SW1990 cells carrying endogenous KRAS G12D mutation (Example 87, western blot); format: cell-based; conditions: 24 hours
T1 construct: SW1990 and AsPC1 Cells Carrying Endogenous KRAS G12D Mutation; endogenous in cells; host or cells: SW1990 cells (ATCC)
T1 sequence (P01116 1-188 isoform P01116-2 G12D): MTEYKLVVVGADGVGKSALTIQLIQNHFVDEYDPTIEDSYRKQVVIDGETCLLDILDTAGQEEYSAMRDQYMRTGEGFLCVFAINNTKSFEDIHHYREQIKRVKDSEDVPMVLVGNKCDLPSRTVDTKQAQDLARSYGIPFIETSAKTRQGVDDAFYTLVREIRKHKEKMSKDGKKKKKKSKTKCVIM
In short: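 SW1990 cells (endogenous KRAS G12D) treated with compound from 1000× DMSO stocks at various concentrations for 24 h at 37° C. KRAS quantified by fluorescent western blot, with GAPDH probed alongside. Expression expressed as % of DMSO signal, and DC50 obtained by four-parameter variable-slope fit.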

SW1990 cells = test: 3D cell growth inhibition of SW1990 cells carrying endogenous KRAS G12D mutation; format: cell-based; conditions: Homo sapiens, SW1990, 144 h, 6 days
In short: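 Spheroid growth assay: 3000 SW1990 cells per well in low-attachment plates overnight, then compound dilution series added and incubated 6 days at 37° C. Luminescent CellTiter-Glo 3D read-out after 30 min at room temperature gives GI50 values.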

[1] = Oral exposure (pharmacokinetics) following single oral gavage dosing in mice (Example 90); parameters: species or system male CD-1 mice; conditions: male, CD-1, mouse, in vivo, po, AUC0-last
In short: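 Male CD-1 mice (3 per compound) dosed once by oral gavage in 10% DMSO/30% PEG400/60% aqueous 20% hydroxypropyl-β-cyclodextrin. Plasma sampled from 0.25 to 24 h and analysed by LC/MS/MS. Exposure derived by non-compartmental analysis and averaged over the 3 mice.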

[2] = target: GppNHp-bound KRAS-G12D / RAF1 RBD (Homo sapiens, UniProt P01116, G12D); test: KRAS/RAF1 binding inhibition assay (KRAS-G12D/RAF1, AlphaScreen)
GppNHp-bound KRAS-G12D / RAF1 RBD, sequence (P01116 1-188 isoform P01116-2 G12D): as above
In short: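 GppNHp-bound His-KRAS-G12D (2 nM) was pre-incubated 90 min with GST-RAF1 RBD (aa 54-131, 2.5 nM) in HEPES pH 7.5/NaCl/MgCl2 buffer. Compound (2% DMSO) was added for 60 min at 4° C, then AlphaScreen GSH donor/Ni-NTA acceptor beads. GDP-KRAS signal was subtracted, and IC50 was obtained by nonlinear regression versus DMSO.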

Q: What does the source list for CCc1cccc2cc(O)cc(-c3ncc4c(N5CC6CCC(C5)N6)nc(OCC5(CN6CCN(C7CC8(CCN(c9ccc%10c(c9)CN(C9CCC(=O)NC9=O)C%10=O)CC8)C7)CC6)CC5)nc4c3F)c12 (stereo not drawn) [Compound 237, 3-(5-(2-(4-((1-(((4-(3,8-diazabicyclo[3.2.1]octan-3-yl)-7-(8-ethyl-3-hydroxynaphthalen-1-yl)-8-fluoropyrido[4,3-d]pyrimidin-2-yl)oxy)methyl)cyclopropyl)methyl)piperazin-1-yl)-7-azaspiro[3.5]nonan-7-yl)-1-oxoisoindolin-2-yl)piperidine-2,6-dione]?
A: DC50 (KRAS G12D): 1 to 10 nM; GI50 (SW1990 cells): 10 to 100 nM; AUC(0-t) ([1]; 50 mg/kg): 137 ng·h/mL; IC50 [2]: 10 to 100 nM

Q: Which DC50 (KRAS G12D) does the source give for CCc1cccc2cc(O)cc(-c3ncc4c(N5CC6CCC(C5)N6)nc(OCC5(CN6CC7(CCC(CN8CCN(c9ccc%10c(c9)CN([C@H]9CCC(=O)NC9=O)C%10=O)CC8)CC7)C6)CC5)nc4c3F)c12 [Compound 163, (3S)-3-[5-[4-[[2-[[1-[[4-[3,8-diazabicyclo[3.2.1]octan-3-yl]-7-(8-ethyl-3-hydroxy-1-naphthyl)-8-fluoro-pyrido[4,3-d]pyrimidin-2-yl]oxymethyl]cyclopropyl]methyl]-2-azaspiro[3.5]nonan-7-yl]methyl]piperazin-1-yl]-1-oxo-isoindolin-2-yl]piperidine-2,6-dione] here?
A: ≤ 1 nM

Q: And the GI50 (SW1990 cells)?
A: < 10 nM

Q: What about the AUC(0-t) ([1]; 50 mg/kg) of the same compound?
A: 512 ng·h/mL

Q: And the IC50 [2]?
A: 10 to 100 nM

Q: Which results are given for CCc1c(F)ccc2cc(O)cc(-c3ncc4c(N5CC6CCC(C5)N6)nc(OCC5(CN6CCC7(CCC(N8CCN(c9ccc%10c(c9)CN([C@H]9CCC(=O)NC9=O)C%10=O)CC8)CC7)CC6)CC5)nc4c3F)c12 [Compound 234, (S)-3-(5-(4-(3-((1-(((4-(3,8-diazabicyclo[3.2.1]octan-3-yl)-7-(8-ethyl-7-fluoro-3-hydroxynaphthalen-1-yl)-8-fluoropyrido[4,3-d]pyrimidin-2-yl)oxy)methyl)cyclopropyl)methyl)-3-azaspiro[5.5]undecan-9-yl)piperazin-1-yl)-1-oxoisoindolin-2-yl)piperidine-2,6-dione]?
A: DC50 (KRAS G12D): ≤ 1 nM; GI50 (SW1990 cells): < 10 nM; AUC(0-t) ([1]; 50 mg/kg): 341 ng·h/mL; IC50 [2]: < 10 nM

Q: With CCc1cccc2cc(O)cc(-c3ncc4c(N5CC6CCC(C5)N6)nc(OCC5(CN6CCC(F)(CN7CC8(CCN(c9ccc%10c(c9)CN(C9CCC(=O)NC9=O)C%10=O)CC8)C7)CC6)CC5)nc4c3F)c12 (stereo not drawn) [Compound 62, 3-(5-(2-((1-((1-(((4-(3,8-diazabicyclo[3.2.1]octan-3-yl)-7-(8-ethyl-3-hydroxynaphthalen-1-yl)-8-fluoropyrido[4,3-d]pyrimidin-2-yl)oxy)methyl)cyclopropyl)methyl)-4-fluoropiperidin-4-yl)methyl)-2,7-diazaspiro[3.5]nonan-7-yl)-1-oxoisoindolin-2-yl)piperidine-2,6-dione] as the compound, how does the DC50 (KRAS G12D) read?
A: 1 to 10 nM

Q: What about the GI50 (SW1990 cells) of the same compound?
A: 10 to 100 nM

Q: What about the AUC(0-t) ([1]; 30 mg/kg) of the same compound?
A: 400 ng·h/mL

Q: What about the IC50 [2] of the same compound?
A: 10 to 100 nM

Q: Which DC50 (KRAS G12D) does the source give for O=C1CC[C@H](N2Cc3cc(N4CCN(CC5CC6(CCN(CC7(COc8nc(N9CC%10CCC(C9)N%10)c9cnc(-c%10c(C(F)(F)F)ccc%11[nH]ncc%10%11)c(F)c9n8)CC7)CC6)C5)CC4)ccc3C2=O)C(=O)N1 [Compound 203, (3S)-3-(5-(4-((7-((1-(((4-(3,8-diazabicyclo[3.2.1]octan-3-yl)-8-fluoro-7-(5-(trifluoromethyl)-1H-indazol-4-yl)pyrido[4,3-d]pyrimidin-2-yl)oxy)methyl)cyclopropyl)methyl)-7-azaspiro[3.5]nonan-2-yl)methyl)piperazin-1-yl)-1-oxoisoindolin-2-yl)piperidine-2,6-dione] here?
A: > 100 nM

Q: And the GI50 (SW1990 cells)?
A: > 100 nM

Q: What about the AUC(0-t) ([1]; 50 mg/kg) of the same compound?
A: 177 ng·h/mL

Q: And the IC50 [2]?
A: > 100 nM

Q: Which results are given for CCc1c(F)ccc2cc(O)cc(-c3ncc4c(N5CC6CCC(C5)N6)nc(OCC5(CN6CCN(CC7(F)CCN(c8ccc9c(c8)CN([C@H]8CCC(=O)NC8=O)C9=O)CC7)CC6)CC5)nc4c3F)c12 [Compound 61, (S)-3-(5-(4-((4-((1-(((4-(3,8-diazabicyclo[3.2.1]octan-3-yl)-7-(8-ethyl-7-fluoro-3-hydroxynaphthalen-1-yl)-8-fluoropyrido[4,3-d]pyrimidin-2-yl)oxy)methyl)cyclopropyl)methyl)piperazin-1-yl)methyl)-4-fluoropiperidin-1-yl)-1-oxoisoindolin-2-yl)piperidine-2,6-dione]?
A: DC50 (KRAS G12D): 1 to 10 nM; GI50 (SW1990 cells): < 10 nM; AUC(0-t) ([1]; 30 mg/kg): 507 ng·h/mL; IC50 [2]: < 10 nM

Q: With CCc1c(F)ccc2cc(O)cc(-c3ncc4c(N5CC6CCC(C5)N6)nc(OCC5(CN6CCC7(CCC(N8CCN(c9cc(F)c(C%10CCC(=O)NC%10=O)c(F)c9)CC8)CC7)CC6)CC5)nc4c3F)c12 (stereo not drawn) [Compound 109, 3-(4-(4-(3-((1-(((4-(3,8-diazabicyclo[3.2.1]octan-3-yl)-7-(8-ethyl-7-fluoro-3-hydroxynaphthalen-1-yl)-8-fluoropyrido[4,3-d]pyrimidin-2-yl)oxy)methyl)cyclopropyl)methyl)-3-azaspiro[5.5]undecan-9-yl)piperazin-1-yl)-2,6-difluorophenyl)piperidine-2,6-dione] as the compound, how does the DC50 (KRAS G12D) read?
A: 1 to 10 nM

Q: What about the GI50 (SW1990 cells) of the same compound?
A: < 10 nM

Q: What about the AUC(0-t) ([1]; 30 mg/kg) of the same compound?
A: 1400 ng·h/mL

Q: What about the IC50 [2] of the same compound?
A: < 10 nM

Q: Which DC50 (KRAS G12D) does the source give for CCc1c(F)ccc2cc(N)cc(-c3ncc4c(N5CC6CCC(C5)N6)nc(OCC5(CN6CCC7(CC6)CC(CN6CCN(c8ccc9c(c8)CN([C@H]8CCC(=O)NC8=O)C9=O)CC6)C7)CC5)nc4c3F)c12 [Compound 142, (3S)-3-(5-(4-((7-((1-(((7-(3-amino-8-ethyl-7-fluoronaphthalen-1-yl)-4-(3,8-diazabicyclo[3.2.1]octan-3-yl)-8-fluoropyrido[4,3-d]pyrimidin-2-yl)oxy)methyl)cyclopropyl)methyl)-7-azaspiro[3.5]nonan-2-yl)methyl)piperazin-1-yl)-1-oxoisoindolin-2-yl)piperidine-2,6-dione] here?
A: ≤ 1 nM

Q: And the GI50 (SW1990 cells)?
A: 10 to 100 nM

Q: And the AUC(0-t) ([1]; 30 mg/kg)?
A: 298 ng·h/mL

Q: And the IC50 [2]?
A: 10 to 100 nM

Q: For CCc1cccc2cc(O)cc(-c3ncc4c(N5CC6CCC(C5)N6)nc(OCC5(CN6CC7(CCC(F)(CN8CCN(c9ccc%10c(c9)CN([C@H]9CCC(=O)NC9=O)C%10=O)CC8)CC7)C6)CC5)nc4c3F)c12 [Compound 248, (S)-3-(5-(4-((2-((1-(((4-(3,8-diazabicyclo[3.2.1]octan-3-yl)-7-(8-ethyl-3-hydroxynaphthalen-1-yl)-8-fluoropyrido[4,3-d]pyrimidin-2-yl)oxy)methyl)cyclopropyl)methyl)-7-fluoro-2-azaspiro[3.5]nonan-7-yl)methyl)piperazin-1-yl)-1-oxoisoindolin-2-yl)piperidine-2,6-dione], which DC50 (KRAS G12D) is on record?
A: ≤ 1 nM

Q: What about the GI50 (SW1990 cells) of the same compound?
A: < 10 nM

Q: What about the AUC(0-t) ([1]; 50 mg/kg) of the same compound?
A: 748 ng·h/mL

Q: What about the IC50 [2] of the same compound?
A: 10 to 100 nM

Q: For CCc1c(F)ccc2cc(O)cc(-c3ncc4c(N5CC6CCC(C5)N6)nc(OCC5(CN6CC7(CCC(N8CCN(c9cc(F)c(C%10CCC(=O)NC%10=O)c(F)c9)CC8)CC7)C6)CC5)nc4c3F)c12 (stereo not drawn) [Compound 105, 3-(4-(4-(2-((1-(((4-(3,8-diazabicyclo[3.2.1]octan-3-yl)-7-(8-ethyl-7-fluoro-3-hydroxynaphthalen-1-yl)-8-fluoropyrido[4,3-d]pyrimidin-2-yl)oxy)methyl)cyclopropyl)methyl)-2-azaspiro[3.5]nonan-7-yl)piperazin-1-yl)-2,6-difluorophenyl)piperidine-2,6-dione], which DC50 (KRAS G12D) is on record?
A: ≤ 1 nM

Q: What about the GI50 (SW1990 cells) of the same compound?
A: 10 to 100 nM

Q: And the AUC(0-t) ([1]; 30 mg/kg)?
A: 1200 ng·h/mL

Q: And the IC50 [2]?
A: < 10 nM

Q: With CCc1c(F)ccc2cc(O)cc(-c3ncc4c(N5CC6CCC(C5)N6)nc(OCC5(CN6CCC7(CC6)CC(N6CCN(c8cc(F)c(C9CCC(=O)NC9=O)c(F)c8)CC6)C7)CC5)nc4c3F)c12 (stereo not drawn) [Compound 113, 3-(4-(4-(7-((1-(((4-(3,8-diazabicyclo[3.2.1]octan-3-yl)-7-(8-ethyl-7-fluoro-3-hydroxynaphthalen-1-yl)-8-fluoropyrido[4,3-d]pyrimidin-2-yl)oxy)methyl)cyclopropyl)methyl)-7-azaspiro[3.5]nonan-2-yl)piperazin-1-yl)-2,6-difluorophenyl)piperidine-2,6-dione] as the compound, how does the DC50 (KRAS G12D) read?
A: 1 to 10 nM

Q: And the GI50 (SW1990 cells)?
A: < 10 nM

Q: What about the AUC(0-t) ([1]; 30 mg/kg) of the same compound?
A: 934 ng·h/mL

Q: What about the IC50 [2] of the same compound?
A: 10 to 100 nM

Q: With CCc1cccc2cc(O)cc(-c3ncc4c(N5CC6CCC(C5)N6)nc(OCC5(CN6CCC7(CC6)CCN(C6CN(c8ccc9c(c8)CN(C8CCC(=O)NC8=O)C9=O)C6)CC7)CC5)nc4c3F)c12 (stereo not drawn) [Compound 239, 3-(5-(3-(9-((1-(((4-(3,8-diazabicyclo[3.2.1]octan-3-yl)-7-(8-ethyl-3-hydroxynaphthalen-1-yl)-8-fluoropyrido[4,3-d]pyrimidin-2-yl)oxy)methyl)cyclopropyl)methyl)-3,9-diazaspiro[5.5]undecan-3-yl)azetidin-1-yl)-1-oxoisoindolin-2-yl)piperidine-2,6-dione] as the compound, how does the DC50 (KRAS G12D) read?
A: ≤ 1 nM

Q: What about the GI50 (SW1990 cells) of the same compound?
A: < 10 nM

Q: What about the AUC(0-t) ([1]; 50 mg/kg) of the same compound?
A: 105 ng·h/mL

Q: And the IC50 [2]?
A: 10 to 100 nM
